Test results from ChEMBL document CHEMBL4725279, “Design and synthesis of peptide-based chimeric molecules to induce degradation of the estrogen and androgen receptors” (Bioorg Med Chem, 2020).

Experiments:
Type in all cases: cell-based
[1] = target: T1, Protein cereblon/Aryl hydrocarbon receptor (Homo sapiens, UniProt P35869+Q96SW2); assay: Protac activity at CRBN/AhR in human MCF7 cells assessed as induction of AhR protein degradation by measuring AhR protein level at 20 uM incubated for 8 hrs in presence of proteasome inhibitor, MG132 by western blot analysis relative to lamin B; conditions: mcf7, 8 h
T1 sequence (P35869 whole entry): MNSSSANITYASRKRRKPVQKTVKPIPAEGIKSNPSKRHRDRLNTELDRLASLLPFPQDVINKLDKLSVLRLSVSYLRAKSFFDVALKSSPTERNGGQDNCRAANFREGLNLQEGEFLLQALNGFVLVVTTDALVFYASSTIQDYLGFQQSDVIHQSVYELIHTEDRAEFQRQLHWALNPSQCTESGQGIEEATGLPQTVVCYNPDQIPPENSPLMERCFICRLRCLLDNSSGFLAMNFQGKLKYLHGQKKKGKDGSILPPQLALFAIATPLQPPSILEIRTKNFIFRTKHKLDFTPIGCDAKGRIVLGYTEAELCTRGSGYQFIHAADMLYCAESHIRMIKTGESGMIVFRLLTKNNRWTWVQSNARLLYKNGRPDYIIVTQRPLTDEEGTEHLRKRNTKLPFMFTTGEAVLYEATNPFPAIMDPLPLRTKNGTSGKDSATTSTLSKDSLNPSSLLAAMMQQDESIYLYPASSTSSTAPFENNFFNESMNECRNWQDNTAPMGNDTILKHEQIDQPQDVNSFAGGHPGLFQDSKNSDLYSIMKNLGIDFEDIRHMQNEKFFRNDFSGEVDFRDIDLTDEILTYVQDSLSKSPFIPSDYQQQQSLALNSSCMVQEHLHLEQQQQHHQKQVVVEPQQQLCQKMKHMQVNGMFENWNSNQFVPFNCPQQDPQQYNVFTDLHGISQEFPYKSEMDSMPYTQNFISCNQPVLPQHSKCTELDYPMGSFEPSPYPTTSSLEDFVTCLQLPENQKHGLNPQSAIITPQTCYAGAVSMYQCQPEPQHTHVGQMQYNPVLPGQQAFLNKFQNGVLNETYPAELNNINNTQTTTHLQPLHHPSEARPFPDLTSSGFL
T1 sequence (Q96SW2 whole entry): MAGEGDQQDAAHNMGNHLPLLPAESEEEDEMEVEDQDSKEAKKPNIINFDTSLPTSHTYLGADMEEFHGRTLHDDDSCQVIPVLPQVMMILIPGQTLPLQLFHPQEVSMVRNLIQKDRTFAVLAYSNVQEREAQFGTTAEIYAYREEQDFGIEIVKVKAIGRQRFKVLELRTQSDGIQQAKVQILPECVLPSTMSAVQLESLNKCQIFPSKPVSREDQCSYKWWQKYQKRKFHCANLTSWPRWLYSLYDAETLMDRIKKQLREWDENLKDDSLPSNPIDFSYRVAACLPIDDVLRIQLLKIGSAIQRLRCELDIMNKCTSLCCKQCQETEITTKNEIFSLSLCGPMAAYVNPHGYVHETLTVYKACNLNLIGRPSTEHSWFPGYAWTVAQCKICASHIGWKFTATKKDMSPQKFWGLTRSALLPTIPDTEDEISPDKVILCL

[2] = target: T2, Protein cereblon/Androgen receptor (Homo sapiens) (UniProt P10275+Q96SW2); assay: Protac activity at CRBN/AR in human MCF7 cells assessed as induction of AR protein degradation by measuring AR protein level at 5 uM incubated for 8 hrs by western blot analysis relative to lamin B
T2 sequence (P10275 whole entry, looked up): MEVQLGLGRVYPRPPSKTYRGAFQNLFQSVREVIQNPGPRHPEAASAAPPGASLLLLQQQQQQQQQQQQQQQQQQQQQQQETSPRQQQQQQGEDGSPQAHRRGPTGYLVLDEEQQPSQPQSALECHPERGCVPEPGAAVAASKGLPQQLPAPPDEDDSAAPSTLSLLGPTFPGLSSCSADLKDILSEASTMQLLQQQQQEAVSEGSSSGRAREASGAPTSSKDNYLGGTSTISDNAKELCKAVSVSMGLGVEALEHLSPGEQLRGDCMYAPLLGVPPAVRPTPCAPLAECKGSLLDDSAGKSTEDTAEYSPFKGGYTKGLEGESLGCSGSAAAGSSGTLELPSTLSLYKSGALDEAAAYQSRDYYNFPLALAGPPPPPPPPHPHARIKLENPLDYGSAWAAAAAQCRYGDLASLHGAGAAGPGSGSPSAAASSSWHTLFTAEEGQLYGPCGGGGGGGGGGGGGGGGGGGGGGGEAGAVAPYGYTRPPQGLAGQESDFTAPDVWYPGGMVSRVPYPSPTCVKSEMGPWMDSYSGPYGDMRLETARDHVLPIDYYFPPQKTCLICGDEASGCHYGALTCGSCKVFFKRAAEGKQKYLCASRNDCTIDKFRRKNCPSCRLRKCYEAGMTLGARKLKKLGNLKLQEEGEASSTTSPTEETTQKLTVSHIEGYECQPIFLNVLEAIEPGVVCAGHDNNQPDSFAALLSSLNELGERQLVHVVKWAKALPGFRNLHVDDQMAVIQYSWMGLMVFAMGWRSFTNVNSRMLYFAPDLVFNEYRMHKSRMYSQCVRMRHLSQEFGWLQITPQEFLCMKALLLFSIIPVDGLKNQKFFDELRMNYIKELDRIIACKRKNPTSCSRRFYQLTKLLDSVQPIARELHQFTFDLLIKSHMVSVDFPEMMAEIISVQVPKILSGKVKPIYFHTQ
T2 sequence (Q96SW2 whole entry, looked up): as the sequence (Q96SW2 whole entry) above

[3] = target: T3, Protein cereblon/Estrogen receptor (Homo sapiens) (UniProt P03372+Q96SW2); assay: Protac activity at CRBN/ERalpha in human MCF7 cells assessed as induction of ERalpha protein degradation by measuring ERalpha protein level at 5 uM incubated for 8 hrs by western blot analysis relative to lamin B
T3 sequence (P03372 whole entry, looked up): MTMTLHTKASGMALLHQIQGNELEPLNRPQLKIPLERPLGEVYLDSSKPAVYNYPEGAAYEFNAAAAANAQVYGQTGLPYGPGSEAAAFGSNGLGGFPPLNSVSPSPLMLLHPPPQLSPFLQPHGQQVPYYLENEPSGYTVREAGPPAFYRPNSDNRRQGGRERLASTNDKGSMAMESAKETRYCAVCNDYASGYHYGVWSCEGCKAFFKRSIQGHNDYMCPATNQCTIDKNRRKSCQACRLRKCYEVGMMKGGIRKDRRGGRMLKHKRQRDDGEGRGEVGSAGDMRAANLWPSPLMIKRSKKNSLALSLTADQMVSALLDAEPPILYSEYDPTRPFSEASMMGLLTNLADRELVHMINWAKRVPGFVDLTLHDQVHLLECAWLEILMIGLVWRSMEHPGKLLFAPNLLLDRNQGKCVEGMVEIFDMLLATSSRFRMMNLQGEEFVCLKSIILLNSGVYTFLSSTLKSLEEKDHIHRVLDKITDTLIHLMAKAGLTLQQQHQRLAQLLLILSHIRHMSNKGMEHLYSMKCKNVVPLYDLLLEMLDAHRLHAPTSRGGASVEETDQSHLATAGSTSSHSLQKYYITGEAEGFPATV
T3 sequence (Q96SW2 whole entry, looked up): as the sequence (Q96SW2 whole entry) above

[4] = target: T3, Protein cereblon/Estrogen receptor (Homo sapiens); assay: Protac activity at CRBN/ERalpha in CRBN siRNA-transfected human MCF7 cells assessed as induction of ERalpha protein degradation by measuring ERalpha protein level at 20 uM incubated for 8 hrs by western blot analysis relative to lamin B
[5] = target: T2, Protein cereblon/Androgen receptor (Homo sapiens); assay: Protac activity at CRBN/AR in CRBN siRNA-transfected human MCF7 cells assessed as induction of AR protein degradation by measuring AR protein level at 20 uM incubated for 8 hrs by western blot analysis relative to lamin B
[6] = target: T1, Protein cereblon/Aryl hydrocarbon receptor; assay: Protac activity at CRBN/AhR in human MCF7 cells assessed as induction of AhR protein degradation by measuring AhR protein level at 5 uM incubated for 8 hrs by western blot analysis relative to lamin B; conditions: mcf7, 8 h
[7] = target: T3, Protein cereblon/Estrogen receptor (Homo sapiens); assay: Protac activity at CRBN/ERalpha in human MCF7 cells assessed as induction of ERalpha protein degradation by measuring ERalpha protein level at 20 uM incubated for 8 hrs in presence of proteasome inhibitor, MG132 by western blot analysis relative to lamin B
[8] = target: T1, Protein cereblon/Aryl hydrocarbon receptor; assay: Protac activity at CRBN/AhR in human MCF7 cells assessed as induction of AhR protein degradation by measuring AhR protein level at 5 uM incubated for 24 hrs by western blot analysis relative to lamin B; conditions: mcf7, 24 h
[9] = target: T3, Protein cereblon/Estrogen receptor (Homo sapiens); assay: Protac activity at CRBN/ERalpha in human MCF7 cells assessed as induction of ERalpha protein degradation by measuring ERalpha protein level at 5 uM incubated for 24 hrs by western blot analysis relative to lamin B
[10] = target: T1, Protein cereblon/Aryl hydrocarbon receptor; assay: Protac activity at CRBN/AhR in human MCF7 cells assessed as induction of AhR protein degradation by measuring AhR protein level at 10 uM incubated for 8 hrs by western blot analysis relative to lamin B; conditions: mcf7, 8 h
[11] = target: T3, Protein cereblon/Estrogen receptor (Homo sapiens); assay: Protac activity at CRBN/ERalpha in human MCF7 cells assessed as induction of ERalpha protein degradation by measuring ERalpha protein level at 20 uM incubated for 8 hrs in presence of ubiquitin activating inhibitor MLN7243 by western blot analysis relative to lamin B
[12] = target: T3, Protein cereblon/Estrogen receptor (Homo sapiens); assay: Protac activity at CRBN/ERalpha in human MCF7 cells assessed as induction of ERalpha protein degradation incubated for 8 to 24 hrs by western blot analysis; conditions: time hrs 8-24
[13] = target: T2, Protein cereblon/Androgen receptor (Homo sapiens); assay: Protac activity at CRBN/AR in human MCF7 cells assessed as induction of AR protein degradation by measuring AR protein level at 10 uM incubated for 24 hrs by western blot analysis relative to lamin B
[14] = target: T1, Protein cereblon/Aryl hydrocarbon receptor; assay: Protac activity at CRBN/AhR in human MCF7 cells assessed as induction of AhR protein degradation by measuring AhR protein level at 20 uM incubated for 24 hrs by western blot analysis relative to lamin B; conditions: mcf7, 24 h
[15] = target: T2, Protein cereblon/Androgen receptor (Homo sapiens); assay: Protac activity at CRBN/AR in human MCF7 cells assessed as induction of AR protein degradation by measuring AR protein level at 20 uM incubated for 8 hrs in presence of ubiquitin activating inhibitor MLN7243 by western blot analysis relative to lamin B
[16] = target: T2, Protein cereblon/Androgen receptor (Homo sapiens); assay: Protac activity at CRBN/AR in human MCF7 cells assessed as induction of AR protein degradation by measuring AR protein level at 10 uM incubated for 8 hrs by western blot analysis relative to lamin B
[17] = target: T1, Protein cereblon/Aryl hydrocarbon receptor; assay: Protac activity at CRBN/AhR in human MCF7 cells assessed as induction of AhR protein degradation by measuring AhR protein level at 20 uM incubated for 8 hrs by western blot analysis relative to lamin B; conditions: mcf7, 8 h
[18] = target: T2, Protein cereblon/Androgen receptor (Homo sapiens); assay: Protac activity at CRBN/AR in human MCF7 cells assessed as induction of AR protein degradation incubated for 8 to 24 hrs by western blot analysis; conditions: time hrs 8-24
[19] = target: T2, Protein cereblon/Androgen receptor (Homo sapiens); assay: Protac activity at CRBN/AR in human MCF7 cells assessed as induction of AR protein degradation by measuring AR protein level at 20 uM incubated for 24 hrs by western blot analysis relative to lamin B
[20] = target: T1, Protein cereblon/Aryl hydrocarbon receptor; assay: Protac activity at CRBN/AhR in human MCF7 cells assessed as induction of AhR protein degradation by measuring AhR protein level at 20 uM incubated for 8 hrs in presence of ubiquitin activating inhibitor MLN7243 by western blot analysis relative to lamin B; conditions: mcf7, 8 h
[21] = target: T1, Protein cereblon/Aryl hydrocarbon receptor; assay: Protac activity at CRBN/AhR in human MCF7 cells assessed as induction of AhR protein degradation by measuring AhR protein level at 10 uM incubated for 24 hrs by western blot analysis relative to lamin B; conditions: mcf7, 24 h
[22] = target: T2, Protein cereblon/Androgen receptor (Homo sapiens); assay: Protac activity at CRBN/AR in human MCF7 cells assessed as induction of AR protein degradation by measuring AR protein level at 5 uM incubated for 24 hrs by western blot analysis relative to lamin B
[23] = target: T3, Protein cereblon/Estrogen receptor (Homo sapiens); assay: Protac activity at CRBN/ERalpha in human MCF7 cells assessed as induction of ERalpha protein degradation by measuring ERalpha protein level at 20 uM incubated for 24 hrs by western blot analysis relative to lamin B
[24] = target: T3, Protein cereblon/Estrogen receptor (Homo sapiens); assay: Protac activity at CRBN/ERalpha in human MCF7 cells assessed as induction of ERalpha protein degradation by measuring ERalpha protein level at 10 uM incubated for 24 hrs by western blot analysis relative to lamin B
[25] = target: T2, Protein cereblon/Androgen receptor (Homo sapiens); assay: Protac activity at CRBN/AR in human MCF7 cells assessed as induction of AR protein degradation by measuring AR protein level at 20 uM incubated for 8 hrs by western blot analysis relative to lamin B
[26] = target: T3, Protein cereblon/Estrogen receptor (Homo sapiens); assay: Protac activity at CRBN/ERalpha in human MCF7 cells assessed as induction of ERalpha protein degradation by measuring ERalpha protein level at 10 uM incubated for 8 hrs by western blot analysis relative to lamin B
[27] = target: T2, Protein cereblon/Androgen receptor (Homo sapiens); assay: Protac activity at CRBN/AR in human MCF7 cells assessed as induction of AR protein degradation by measuring AR protein level at 20 uM incubated for 8 hrs in presence of proteasome inhibitor, MG132 by western blot analysis relative to lamin B
[28] = target: T3, Protein cereblon/Estrogen receptor (Homo sapiens); assay: Protac activity at CRBN/ERalpha in human MCF7 cells assessed as induction of ERalpha protein degradation by measuring ERalpha protein level at 20 uM incubated for 8 hrs by western blot analysis relative to lamin B

Activity [1]: 123% | Activity [2]: 97% | Activity [3]: 108% | Activity [4]: 93% | Activity [5]: 93% | Activity [6]: 124% | Activity [7]: 78% | Activity [8]: 101% | Activity [9]: 85% | Activity [10]: 123% | Activity [11]: 117% | Activity [12]: Dose-dependent effect | Activity [13]: 89% | Activity [14]: 133% | Activity [15]: 119% | Activity [16]: 80% | Activity [17]: 115% | Activity [18]: Dose-dependent effect | Activity [19]: 79% | Activity [20]: 107% | Activity [21]: 111% | Activity [22]: 84% | Activity [23]: 51% | Activity [24]: 64% | Activity [25]: 51% | Activity [26]: 85% | Activity [27]: 92% | Activity [28]: 57%
SMILES: CC[C@H](C)[C@@H]1NC(=O)[C@H](NC(=O)[C@@H](N)CCCCNC(=O)CCOCCOCCOCCOCCOCCNc2cccc3c2C(=O)N(C2CCC(=O)NC2=O)C3=O)CSSC[C@@H](C(=O)N[C@@H](CCCNC(=N)N)C(=O)N[C@@H](CC(C)(C)C)C(=O)N[C@@H](CC(C)C)C(=O)N[C@@H](CCC(N)=O)C(=O)NCC(=O)NCC(=O)NCC(=O)N[C@@H](CCCNC(=N)N)C(=O)N[C@@H](CCCNC(=N)N)C(=O)N[C@@H](CCCNC(=N)N)C(=O)N[C@@H](CCCNC(=N)N)C(=O)N[C@@H](CCCNC(=N)N)C(=O)N[C@@H](CCCNC(=N)N)C(=O)N[C@@H](CCCNC(=N)N)C(N)=O)NC(=O)[C@H](CC(C)C)NC1=O (stereo partly drawn)
